This note sets out measurements from ChEMBL document CHEMBL1141890, “DNA topoisomerase I inhibitors from Rinorea anguifera” (Bioorg Med Chem Lett, 2005).

The structures appear in SMILES notation.

Assay [1] addresses T1, DNA topoisomerase 1 (Homo sapiens) (UniProt P11387).
T1 sequence (whole entry): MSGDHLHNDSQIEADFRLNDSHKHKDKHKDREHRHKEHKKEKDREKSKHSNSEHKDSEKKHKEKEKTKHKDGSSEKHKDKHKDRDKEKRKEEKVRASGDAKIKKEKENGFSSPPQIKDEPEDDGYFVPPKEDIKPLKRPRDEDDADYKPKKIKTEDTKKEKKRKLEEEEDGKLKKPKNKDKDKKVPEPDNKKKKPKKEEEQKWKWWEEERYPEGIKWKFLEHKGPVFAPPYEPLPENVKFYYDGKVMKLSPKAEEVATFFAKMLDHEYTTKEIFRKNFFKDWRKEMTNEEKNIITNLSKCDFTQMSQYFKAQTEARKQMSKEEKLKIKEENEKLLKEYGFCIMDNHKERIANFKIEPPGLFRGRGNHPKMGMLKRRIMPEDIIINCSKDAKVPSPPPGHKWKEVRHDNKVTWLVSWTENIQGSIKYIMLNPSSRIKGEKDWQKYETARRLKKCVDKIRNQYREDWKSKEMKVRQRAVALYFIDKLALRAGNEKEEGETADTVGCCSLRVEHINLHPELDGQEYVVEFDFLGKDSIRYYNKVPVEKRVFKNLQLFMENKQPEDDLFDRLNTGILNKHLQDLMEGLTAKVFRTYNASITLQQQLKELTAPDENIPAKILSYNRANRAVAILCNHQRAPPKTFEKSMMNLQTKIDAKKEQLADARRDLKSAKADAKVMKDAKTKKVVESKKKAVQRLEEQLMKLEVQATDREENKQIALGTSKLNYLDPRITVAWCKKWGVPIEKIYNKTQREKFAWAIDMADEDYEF
The assay is described as follows: Effect on stabilization of human topoisomerase I-DNA covalent complex at 100 uM.

Assay [2] deals with T1, DNA topoisomerase 1 (Homo sapiens). The assay is described as follows: Effect on DNA breakge as nicked FormII at 1 uM with topoisomerase I. The class given is functional.
Assay [3] has the same target. The assay is described as follows: Effect on DNA breakge as nicked FormII at 100 uM without topoisomerase I. The class given is functional.
For assay [4] the target is unchanged. The note with it: 2 uM.
Description: Effect on stabilization of human topoisomerase I-DNA covalent complex at 2 uM
The target is the same in assay [5]. The note with it: 0.25 uM.
Description: Effect on DNA breakge as nicked FormII at 0.25 uM with topoisomerase I
Assay [6] has the same target. The note with it: 2 uM. This is another data set of the same source.
Description: Effect on DNA breakge as nicked FormII at 2 uM without topoisomerase I

In the case of `COc1cc([C@H]2OC[C@H]3[C@@H]2CO[C@@H]3c2cc(OC)c(O)c(OC)c2)cc(OC)c1O`, the Effect was 2% in assay [1], 8% in assay [2] and 15% in assay [3].

As to `CC1O[C@@H](OC[C@H]2O[C@@H](Oc3c(-c4ccc(O)cc4)oc4cc(O)cc(O)c4c3=O)C(O[C@@H]3O[C@H](C)[C@H](O)C(O)C3O)C(O)[C@H]2O)C(O)[C@@H](O)[C@H]1O` (some centres undefined), the Effect amounted to 10% in assay [1], 31% in assay [2] and 75% in assay [3].

For `CC[C@@]1(O)C(=O)OCc2c1cc1n(c2=O)Cc2cc3ccccc3nc2-1`, the Effect amounted to 2% in assay [4], 84% in assay [5] and 96% in assay [6].
